Structures can show the parent of a compound that is named as a salt.
Columns and labels:
internal anal sphincter = experiment: rat internal anal sphincter (IAS) relaxation model: internal anal sphincter pressure (IASP) in anesthetized rats; format: in vivo; conditions: for drop of IASP: subsequent dose of 1% nitroglycerin, morning after dibutyryl-cGMP; for potentiation with NTG, comparison of PDE V inhibitors (summary): in vivo model, i.p. PDE V inhibitor plus NTG; for relaxation of the rat IAS / reduction of IASP (summary statement in the description): rat IAS in vivo, no dose stated
Method: Male Sprague-Dawley rats (300-400 gm) were anesthetized with ketamine (90 mg/kg), xylazine (9 mg/kg) given intramuscularly and supplemented as needed with ⅓^rd dose. Rats were gently restrained on their backs on a heated surgical table (Harvard Apparatus) for the duration of the experiments. The diuretic effects of anesthesia was offset by rehydration with saline through an intraperitoneal implanted 24 gauge angiocatheter (VWR, San Francisco, Calif.). The constriction/relaxation measurement assembly included a Millar catheter/transducer (1.67 mm diameter.) connected to a Digi-Med Low Pressure Analyzer (Micro-Med) accurate for pressure measurements between −50 and 150 mmHg. The data were integrated and converted to waveforms with the Digi-Med System Integrator software. Blood pressure changes were monitored using an arterial catheter/transducer and a Digi-Med Blood Pressure Analyzer with the DMSI software. Respiratory changes were monitored using a mercury strain gauge/transducer, wrapped around the rib-cage of the rat, hooked up to a Digi-Med Analog Signal Analyzer along with the DMSI software. Drug delivery was accomplished through two Hamilton syringes with no dead space using PE 10 tubing adjacent to the catheter sensor.
In this example, male Sprague-Dawley rats (250-300 g each) from Charles River were used. The rats were anesthetized intramuscularly with ketamine (90 mg/kg) and xylazine (9 mg/kg) and kept warm on a heated surgical table. All internal anal sphincter pressures (IASP) were measured with Millar catheter/transducers (MPC-500 mikrotip; Millar Instruments, Houston) on low pressure analyzers and blood pressure analyzers and recorded by DMSI software provided by Micro-Med (Louisville). Rats were provided with saline i.p. for rehydration due to the diuretic effects of the anesthesia and re-anesthetized as needed with approximately ⅓ the original dosage. In most experiments, the IASP was allowed to reach a stable baseline level prior to drug delivery. Drugs were delivered to the anal sphincter mainly via PE 20 tubing attached to the catheter(s) near the sensor(s) from 100 μl or 250 μl Hamilton syringes either manually or by infusion with a programmable Harvard automatic infusion pump.

muscle of the IAS = experiment: in vitro study of NTG-induced increases in cGMP levels in the muscle of the IAS; conditions: compared with vascular smooth muscle
vascular smooth muscle = experiment: in vitro assay of NTG-induced increases in cGMP levels in vascular smooth muscle
Source text: (§1) One issue with chronic or subchronic therapy with nitric oxide or nitric oxide donors such as NTG is the extent of any tachyphylaxis or tolerance to the relaxant effect of nitric oxide. Clinical studies have shown that the human cardiovascular system develops tolerance to nitric oxide donors. […] Thus, it seemed likely that the IAS would also develop tolerance to the effects of nitric oxide upon repeated or prolonged dosing.

[1] = cardiovascular tolerance to repeated NTG dosing, measured in vivo by mean arterial blood pressure; conditions: rat model, repeated dosing of NTG
Source text: as §1

[2] = in 5% DMSO/Acetone:Olive oil 1:1, infused continuously at 20 μg/hour
[3] = in saline, infused continuously to the IAS at 20 μg/hour
[4] = 10 mg in 100 μl 1M2P i.p. 30 minutes prior to NTG bolus doses (20 μg/min every 30 minutes)
[5] = continuously infused at 20 μg/hour in 5% dextrose

COc1ccc(C2CNC(=O)C2)cc1OC1CCCC1 (stereo not shown) [rolipram]
effect on IASP (internal anal sphincter; [2]): significant drops in IASP followed by shorter recovery phases

CC(C)(C)NCC(O)c1ccc(O)c(CO)c1 (stereo not shown) [salbutamol]
short-term effect on IASP (internal anal sphincter; 200 μg in saline delivered to the IAS, alone): no short-term effects on the IASP | effect on IASP (internal anal sphincter; [3]): significant drop in IASP throughout the experiment

CCCCOc1cc(CC2CNC(=O)N2)ccc1OC (stereo not shown) [RO-20-1724, 4-(3-Butoxy-4-methoxybenzyl)-2-imidazolidinone]
effect on IASP (internal anal sphincter; [2]): minimal

COc1ccc([C@@H]2Sc3ccccc3N(CCN(C)C)C(=O)[C@@H]2OC(C)=O)cc1 [Diltiazem]
effect on IASP (internal anal sphincter; [3]): dramatic and sustained drop in IASP

CCCC(=O)Nc1ncnc2c1ncn2[C@@H]1O[C@@H]2COP(=O)(O)O[C@H]2[C@H]1OC(=O)CCC [Dibutyryl cAMP, N6,2′-O-Dibutyryladenosine-3′,5′-cyclic monophosphate, sodium salt monohydrate]
effect on IASP (internal anal sphincter; [3]): minor depression in IASP | efficacy of cAMP analogs relative to each other (internal anal sphincter; rat model, aqueous-soluble analogs): more efficacious in the rat model than the 8-bromo derivative

O=[N+]([O-])OCC(CO[N+](=O)[O-])O[N+](=O)[O-] [nitroglycerin]
NTG-induced increases in cGMP levels (muscle of the IAS): not as attenuated as those in vascular smooth muscle | effect on resting IASP (internal anal sphincter; 0.1% NTG in 5% dextrose/water with 1% propylene glycol, bolus doses to the IAS at 20 μg/min every 30 minutes): dramatic drop in resting IASP followed by a complete recovery to resting levels | nitrate related pressure tolerance (internal anal sphincter; continuous NTG administration, 20 μg/hour, 4 hours): no nitrate related pressure tolerance was noted | effect on resting IASP (internal anal sphincter; continuous infusion of NTG at 20 μg/hour, 4 hours): steady and sustained decline in resting IASP | duration of depression of IASP due to NTG (internal anal sphincter; control: vehicle 1M2P 100 μl i.p. 30 minutes prior to NTG bolus doses (20 μg/min every 30 minutes)): constant with each dose | duration of depression of IASP due to NTG (internal anal sphincter; control: vehicle 1M2P 100 μl i.p. 50 minutes prior to NTG bolus doses (20 μg/min every 30 minutes)): constant with each dose | duration of depression of IASP due to NTG (internal anal sphincter; control: vehicle 1M2P 100 μl i.p., first NTG dose after 2.75 hours (20 μg/min every 30 minutes)): consistent with each NTG dose | nitrate related pressure tolerance (internal anal sphincter; repeated NTG bolus administration, 20 μg/min every 30 minutes): no nitrate related pressure tolerance was noted | tachyphylaxis to the relaxant effect on the IAS (internal anal sphincter; repeated or prolonged dosing in vivo): does not develop | drop of IASP (internal anal sphincter; first 10 minutes following treatment): 71% | drop of IASP (internal anal sphincter; for 30 minutes): 24% | NTG-induced increases in cGMP levels (vascular smooth muscle): attenuated dramatically | cardiovascular tolerance (mean arterial blood pressure) [1]: develops with repeated dosing

OCCN(CCO)c1nc(N2CCCCC2)c2nc(N(CCO)CCO)nc(N3CCCCC3)c2n1 [Dipyridamole]
duration of depression of IASP due to NTG relative to the vehicle-treated rat (internal anal sphincter; 10 mg in 100 μl 1M2P i.p. 50 minutes prior to NTG bolus doses (20 μg/min every 30 minutes)): approximately twice | potentiation with NTG, comparison of PDE V inhibitors (summary) (internal anal sphincter): less striking potentiation with NTG

Nc1cc(N2CCCCC2)nc(N)[n+]1[O-] [minoxidil]
reduction of the IASP (internal anal sphincter; single 20 μl dose of a 4% solution in 62.5% propylene glycol, over 2.5 hours following treatment): 64%

CC(C)(C)NCC(O)c1cc(O)cc(O)c1 (stereo not shown) [terbutaline]
effect on IASP (internal anal sphincter; [3]): steady and sustained decline in IASP

CCCOc1ccccc1-c1nc2nn[nH]c2c(=O)[nH]1 [zaprinast]
time at which duration of IASP depression by NTG peaked (internal anal sphincter; 10 mg i.p. 2.75 hours prior to NTG bolus doses, time after i.p. dose): 3.5 to 4 h | duration of IASP depression by NTG (potentiation of NTG) (internal anal sphincter; [4]): increasing duration of IASP depression with consecutive doses of NTG | duration of IASP depression by NTG (potentiation of NTG) (internal anal sphincter; 10 mg in 100 μl 1M2P i.p. 2.75 hours prior to NTG bolus doses (20 μg/min every 30 minutes)): continued to increase with each NTG dose | reduction of mean IASP compared with vehicle treatment alone (internal anal sphincter; 20 μL of a 5% solution in 1-methyl-2-pyrrolidinone, over 32 minutes): 21%

CC1=NS(=O)(=O)c2cc(Cl)ccc2N1 [Diazoxide]
effect on IASP (internal anal sphincter; [2]): dramatic drop in IASP | relaxation of the rat IAS / reduction of IASP (summary statement in the description) (internal anal sphincter): relaxed the rat IAS in vivo

Clc1ccc2ncnc(NCc3ccc4c(c3)OCO4)c2c1 [MBCQ, 4-((3,4-(Methylenedioxy)benzyl)amino)-6-chloroquinazoline]
potentiation of NTG (internal anal sphincter; [4]): No noticeable potentiation of NTG | potentiation with NTG, comparison of PDE V inhibitors (summary) (internal anal sphincter): did not demonstrate significant activity

Cn1c(=O)c2[nH]cnc2n(C)c1=O [Theophylline]
effect on IASP (internal anal sphincter; continuously infused at 2 μg/hour in 5% dextrose, 3 hour experiment): minimal drop in average IASP | effect on IASP (internal anal sphincter; [5]): moderate drop in average IASP | effect on IASP (internal anal sphincter; continuously infused at 200 μg/hour in 5% dextrose, 4 hour experiment): dramatic and sustained drop in IASP | relaxation of the rat IAS / reduction of IASP (summary statement in the description) (internal anal sphincter): relaxed the rat IAS

CCCC(=O)Nc1nc2c(ncn2C2OC3COP(=O)([O-])OC3C2OC(=O)CCC)c(=O)[nH]1.[Na+] (stereo not shown) [dibutyryl-cGMP, N2,2′-O-Dibutyrylguanosine-3′,5′-cyclic monophosphate, sodium salt]
reduction of mean IASP (internal anal sphincter; 20 μl of a 10% solution in saline applied to the anal canal, over 2.5 hours following treatment): 45% | IASP still reduced (internal anal sphincter; 20 μl of a 10% solution in saline, by the following morning): 34% | drop of average IASP (internal anal sphincter; 20 μl of a 10% solution in saline, over the last hour prior to terminating the experiment): 60% | lowering of IASP (internal anal sphincter; further dose after IASP returned to pre-treatment levels, over the ensuing 3 hours and 10 minutes): 15%

COc1cc2nc(N3CCN(C(=O)c4ccco4)CC3)nc(N)c2cc1OC [prazosin]
time after which the drop in IASP plateaued (internal anal sphincter; in 5% DMSO/Acetone:Olive oil 1:1, infused at 20 μg/hour): 1 h | effect on IASP (internal anal sphincter; [2]): significant and sustained drop in IASP

CC(C)Cn1c(=O)n(C)c(=O)c2[nH]cnc21 [IBMX, 3-Isobutyl-1-methylxanthine]
effect on IASP (internal anal sphincter; in 5% DMSO/Acetone:Olive oil 1:1, infused at 200 μg/hour): significant and sustained drop in IASP | time at which the drop in IASP leveled off (internal anal sphincter; in 5% DMSO/Acetone:Olive oil 1:1, infused at 200 μg/hour, after initiation of the infusion): 1 h | effect on IASP (internal anal sphincter; [2]): similar

Cn1c(=O)c2c(ncn2CC(O)CO)n(C)c1=O (stereo not shown) [dyphylline, 7-(2,3-dihydroxypropyl) theophylline]
effect on IASP (internal anal sphincter; [5]): IAS relaxing effects | relaxation of the rat IAS / reduction of IASP (summary statement in the description) (internal anal sphincter): reduce IASP

COc1ccc(CCN(C)CCCC(C#N)(c2ccc(OC)c(OC)c2)C(C)C)cc1OC (stereo not shown) [Verapamil]
effect on IASP (internal anal sphincter; [3]): dramatic and sustained drop in IASP

CC(C)NCC(O)c1ccc(O)c(O)c1 (stereo not shown) [isoproterenol]
effect on IASP (internal anal sphincter; 100 μl 1M2P vehicle i.p., 30 minutes later continuous infusion in saline at 0.2 μg/hour (sub-threshold dose)): no significant effect on lowering IASP | effect on IASP (internal anal sphincter; bolus dose of 200 μg to the IAS): dramatic drop in IASP

O=C(O)c1ccc(C2=C3C=CC(=N3)C(c3ccc(C(=O)O)cc3)=c3ccc([nH]3)=C(c3ccc(C(=O)O)cc3)c3ccc([n-]3)C(c3ccc(C(=O)O)cc3)c3ccc2[n-]3)cc1.[Cl-].[Mn+3] (stereo not shown) [MnTBAP, Mn (III) tetrakis (4-benzoic acid) porphyrin chloride]
NO enhancing activity (internal anal sphincter; rat IASP model, superoxide scavenger with NTG): did not demonstrate significant NO enhancing activity

NCCc1cc(O)c(O)cc1O [6-hydroxydopamine]
course of IASP by day 19 (internal anal sphincter; 200 μg bolus in saline to the IAS each day for 5 days, day 19): partial recovery in IASP | average IASP below the original baseline pressure (internal anal sphincter; 200 μg bolus in saline to the IAS each day for 5 days, day 22): 36% | course of IASP through day 16 (internal anal sphincter; 200 μg bolus in saline to the IAS each day for 5 days, through day 16, 11 days after termination of treatment): continuous drop in IASP | period of prolonged reduction in IASP (internal anal sphincter; following 5 daily topical doses of 200 μg in saline): ≥ 3 week

— patent US6627632B2, “Compositions and methods for the treatment of anorectal disorders” (Cellegy Pharmaceuticals, Inc., priority 1998, dated 2003)
